We go through 15 compounds from patent US20230203059A1, “MACROCYCLIC JAK INHIBITOR AND USES THEREOF” (Biopolar Hongye (Guangdong) Pharmaceutical Co. Ltd., priority 2020, published 2023).

Assay type in all cases: biochemical
One test has as its target TYK2 (Homo sapiens, UniProt P29597). As to the kind of experiment: JAK kinase activity, homogeneous time-resolved fluorescence (TYK2 reaction system). To be noted: ATP 2 μM, TYK2 protein 0.2 ng/μL; read-out: TYK 2 activity. The method, then: (§1) The activity measurement method of JAK kinase was to use homogeneous time-resolved fluorescence technique. The reaction was performed in 384 shallow well plates with a total reaction volume of 10 μL. The mixture of kinase protein, compound, ATP and substrate was carried out in a reaction buffer of 50 mM Hepes (pH7.0), NaN3 0.02%, BSA 0.01%, 0.1 mM Orthocanadate, 5 mM MgCl2, and 1 mM DTT. After reacting for 1 hour, an antibody capable of recognizing substrate phosphorylation, dye XL-615 and detection buffer (Cisbio) containing EDTA were added to the system. The reaction signal of kinase was detected by PE company's porous plate detector. The parameter settings were excitation light at 320 nm, emission light at 615 nm and 665 nm. The activity of JAK is indirectly reflected by the signal ratio of 665 nm and 615 nm. In the reaction, the background well without enzyme and the total enzyme activity well without compound were set.
(§2) The IC50 value of the compound inhibiting protein was obtained by the formula: Y=100/(1+10^((Log IC50−X)*HillSlope)). In JAK1 reaction system, the concentration of ATP was 2 μM, and the concentration of JAK1 protein was 0.2 ng/μL.
In TYK2 reaction system, the concentration of ATP was 2 μM, and the concentration of TYK2 protein was 0.2 ng/μL.

A further test concerns the target JAK1 (Homo sapiens, UniProt P23458). As to the kind of experiment: JAK kinase activity, homogeneous time-resolved fluorescence (JAK1 reaction system). To be noted: ATP 2 μM, JAK1 protein 0.2 ng/μL; read-out: JAK 1 activity. The protocol: as §1, §2
In a further test the target is T1, JAK3 (Homo sapiens, UniProt P52333).
T1 sequence (P52333 1-1124): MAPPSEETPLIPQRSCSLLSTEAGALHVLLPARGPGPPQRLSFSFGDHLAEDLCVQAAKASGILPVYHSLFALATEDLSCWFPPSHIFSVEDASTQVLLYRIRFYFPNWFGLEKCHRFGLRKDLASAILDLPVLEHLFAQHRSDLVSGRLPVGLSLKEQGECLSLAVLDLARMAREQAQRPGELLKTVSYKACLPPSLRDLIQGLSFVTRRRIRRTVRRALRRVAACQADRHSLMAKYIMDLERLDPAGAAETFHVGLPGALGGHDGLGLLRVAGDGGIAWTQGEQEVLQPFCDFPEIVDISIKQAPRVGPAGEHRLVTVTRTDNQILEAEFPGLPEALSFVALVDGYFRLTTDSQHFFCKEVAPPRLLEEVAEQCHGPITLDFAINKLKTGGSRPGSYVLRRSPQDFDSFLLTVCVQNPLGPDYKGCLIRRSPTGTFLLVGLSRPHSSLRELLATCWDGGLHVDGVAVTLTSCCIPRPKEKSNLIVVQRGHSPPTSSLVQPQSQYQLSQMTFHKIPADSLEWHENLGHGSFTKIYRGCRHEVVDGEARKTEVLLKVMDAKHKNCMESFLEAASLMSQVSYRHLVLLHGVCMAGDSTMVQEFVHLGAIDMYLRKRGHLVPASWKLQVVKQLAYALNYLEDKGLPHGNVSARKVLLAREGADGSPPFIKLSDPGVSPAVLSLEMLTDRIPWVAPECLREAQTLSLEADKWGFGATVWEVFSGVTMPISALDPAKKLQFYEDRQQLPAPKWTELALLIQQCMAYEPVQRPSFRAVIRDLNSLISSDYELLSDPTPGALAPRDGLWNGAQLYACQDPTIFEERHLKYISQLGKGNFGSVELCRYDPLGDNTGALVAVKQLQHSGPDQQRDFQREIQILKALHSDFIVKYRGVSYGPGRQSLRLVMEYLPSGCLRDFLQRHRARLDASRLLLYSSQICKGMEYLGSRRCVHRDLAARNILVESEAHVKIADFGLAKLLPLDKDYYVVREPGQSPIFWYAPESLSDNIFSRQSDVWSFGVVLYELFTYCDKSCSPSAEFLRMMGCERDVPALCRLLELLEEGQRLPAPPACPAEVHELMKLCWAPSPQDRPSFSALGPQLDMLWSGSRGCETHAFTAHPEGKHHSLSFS
In words: JAK kinase activity, homogeneous time-resolved fluorescence (JAK3 reaction system). Particulars: ATP 2 μM, JAK3 protein 0.04 ng/μL; read-out: JAK 3 activity. The method, then: as §1, with “The reaction was performed in 384 shallow well plates with a total reaction volume of 10 μL.” left out, “After reacting for 1 hour, an antibody capable of recognizing substrate phosphorylation, dye XL-615 and detection buffer (Cisbio) containing EDTA were added to the system.” left out, “set. […]” for “set.”
In JAK3 reaction system, the concentration of ATP was 2 μM, and the concentration of JAK3 protein was 0.04 ng/μL.

Another test addresses JAK2 (Homo sapiens, UniProt O60674). As to the kind of experiment: JAK kinase activity, homogeneous time-resolved fluorescence (JAK2 reaction system). To be noted: ATP 2 μM, JAK2 protein 0.01 ng/μL. The method, then:
as §1, §2
In JAK2 reaction system, the concentration of ATP was 2 μM, and the concentration of JAK2 protein was 0.01 ng/μL.

Sequence of JAK2 (O60674 whole entry): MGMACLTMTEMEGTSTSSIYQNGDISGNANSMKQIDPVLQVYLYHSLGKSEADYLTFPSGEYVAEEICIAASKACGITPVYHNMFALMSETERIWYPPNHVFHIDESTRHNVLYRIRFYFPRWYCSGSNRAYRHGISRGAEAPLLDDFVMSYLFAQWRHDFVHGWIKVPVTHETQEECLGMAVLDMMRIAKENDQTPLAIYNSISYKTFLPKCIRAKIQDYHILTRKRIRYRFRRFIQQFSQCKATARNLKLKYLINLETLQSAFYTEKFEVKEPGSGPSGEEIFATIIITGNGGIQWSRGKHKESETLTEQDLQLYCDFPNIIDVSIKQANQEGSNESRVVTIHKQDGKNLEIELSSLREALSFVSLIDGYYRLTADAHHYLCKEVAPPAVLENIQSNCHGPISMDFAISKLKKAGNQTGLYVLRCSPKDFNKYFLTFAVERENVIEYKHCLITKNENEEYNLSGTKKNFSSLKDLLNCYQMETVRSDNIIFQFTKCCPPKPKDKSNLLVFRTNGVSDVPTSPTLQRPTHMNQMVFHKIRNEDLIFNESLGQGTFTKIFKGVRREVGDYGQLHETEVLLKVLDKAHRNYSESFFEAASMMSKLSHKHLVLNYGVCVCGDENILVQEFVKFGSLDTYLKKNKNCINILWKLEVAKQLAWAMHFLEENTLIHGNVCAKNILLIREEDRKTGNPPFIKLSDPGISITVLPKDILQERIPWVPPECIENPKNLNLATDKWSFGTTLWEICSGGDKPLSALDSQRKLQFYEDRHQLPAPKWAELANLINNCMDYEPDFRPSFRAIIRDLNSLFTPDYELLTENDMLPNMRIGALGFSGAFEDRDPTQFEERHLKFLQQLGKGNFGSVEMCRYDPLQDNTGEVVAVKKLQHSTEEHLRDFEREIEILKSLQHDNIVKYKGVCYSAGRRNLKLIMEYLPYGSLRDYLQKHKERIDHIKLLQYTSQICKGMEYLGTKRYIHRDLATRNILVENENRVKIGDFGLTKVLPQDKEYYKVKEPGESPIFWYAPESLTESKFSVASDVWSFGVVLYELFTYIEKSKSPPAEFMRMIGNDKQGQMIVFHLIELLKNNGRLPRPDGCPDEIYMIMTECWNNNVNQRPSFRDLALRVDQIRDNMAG
Sequence of TYK2 (P29597 whole entry): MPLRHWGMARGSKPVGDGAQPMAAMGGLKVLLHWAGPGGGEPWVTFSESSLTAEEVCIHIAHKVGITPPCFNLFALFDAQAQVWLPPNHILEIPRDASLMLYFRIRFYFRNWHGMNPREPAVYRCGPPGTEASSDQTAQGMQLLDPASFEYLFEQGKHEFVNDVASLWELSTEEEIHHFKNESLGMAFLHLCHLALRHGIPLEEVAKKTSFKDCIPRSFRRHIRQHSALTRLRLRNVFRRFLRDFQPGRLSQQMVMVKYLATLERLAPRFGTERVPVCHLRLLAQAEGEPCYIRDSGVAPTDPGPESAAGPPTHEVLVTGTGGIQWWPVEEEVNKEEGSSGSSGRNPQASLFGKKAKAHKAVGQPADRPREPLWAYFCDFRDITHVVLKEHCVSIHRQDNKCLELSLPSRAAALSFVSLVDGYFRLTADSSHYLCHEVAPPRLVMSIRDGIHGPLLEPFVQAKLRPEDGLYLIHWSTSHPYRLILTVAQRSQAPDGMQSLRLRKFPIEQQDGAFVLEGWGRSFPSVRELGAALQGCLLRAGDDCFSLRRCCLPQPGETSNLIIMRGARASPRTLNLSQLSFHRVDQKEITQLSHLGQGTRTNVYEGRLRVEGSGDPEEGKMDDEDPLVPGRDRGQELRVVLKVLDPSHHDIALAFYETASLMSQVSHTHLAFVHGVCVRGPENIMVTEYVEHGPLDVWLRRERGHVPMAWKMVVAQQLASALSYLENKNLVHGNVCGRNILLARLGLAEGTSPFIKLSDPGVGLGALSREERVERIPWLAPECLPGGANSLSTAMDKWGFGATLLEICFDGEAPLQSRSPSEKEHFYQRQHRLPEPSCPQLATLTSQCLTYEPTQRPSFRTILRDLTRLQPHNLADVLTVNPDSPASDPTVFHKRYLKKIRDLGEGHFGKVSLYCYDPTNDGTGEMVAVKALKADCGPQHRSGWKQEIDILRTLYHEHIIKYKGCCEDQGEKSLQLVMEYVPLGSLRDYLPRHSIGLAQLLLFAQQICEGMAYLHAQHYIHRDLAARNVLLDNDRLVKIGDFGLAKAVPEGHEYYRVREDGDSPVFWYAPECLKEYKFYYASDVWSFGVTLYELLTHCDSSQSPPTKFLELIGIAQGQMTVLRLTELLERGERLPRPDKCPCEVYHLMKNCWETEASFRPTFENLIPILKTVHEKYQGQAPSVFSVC
Sequence of JAK1 (P23458 whole entry): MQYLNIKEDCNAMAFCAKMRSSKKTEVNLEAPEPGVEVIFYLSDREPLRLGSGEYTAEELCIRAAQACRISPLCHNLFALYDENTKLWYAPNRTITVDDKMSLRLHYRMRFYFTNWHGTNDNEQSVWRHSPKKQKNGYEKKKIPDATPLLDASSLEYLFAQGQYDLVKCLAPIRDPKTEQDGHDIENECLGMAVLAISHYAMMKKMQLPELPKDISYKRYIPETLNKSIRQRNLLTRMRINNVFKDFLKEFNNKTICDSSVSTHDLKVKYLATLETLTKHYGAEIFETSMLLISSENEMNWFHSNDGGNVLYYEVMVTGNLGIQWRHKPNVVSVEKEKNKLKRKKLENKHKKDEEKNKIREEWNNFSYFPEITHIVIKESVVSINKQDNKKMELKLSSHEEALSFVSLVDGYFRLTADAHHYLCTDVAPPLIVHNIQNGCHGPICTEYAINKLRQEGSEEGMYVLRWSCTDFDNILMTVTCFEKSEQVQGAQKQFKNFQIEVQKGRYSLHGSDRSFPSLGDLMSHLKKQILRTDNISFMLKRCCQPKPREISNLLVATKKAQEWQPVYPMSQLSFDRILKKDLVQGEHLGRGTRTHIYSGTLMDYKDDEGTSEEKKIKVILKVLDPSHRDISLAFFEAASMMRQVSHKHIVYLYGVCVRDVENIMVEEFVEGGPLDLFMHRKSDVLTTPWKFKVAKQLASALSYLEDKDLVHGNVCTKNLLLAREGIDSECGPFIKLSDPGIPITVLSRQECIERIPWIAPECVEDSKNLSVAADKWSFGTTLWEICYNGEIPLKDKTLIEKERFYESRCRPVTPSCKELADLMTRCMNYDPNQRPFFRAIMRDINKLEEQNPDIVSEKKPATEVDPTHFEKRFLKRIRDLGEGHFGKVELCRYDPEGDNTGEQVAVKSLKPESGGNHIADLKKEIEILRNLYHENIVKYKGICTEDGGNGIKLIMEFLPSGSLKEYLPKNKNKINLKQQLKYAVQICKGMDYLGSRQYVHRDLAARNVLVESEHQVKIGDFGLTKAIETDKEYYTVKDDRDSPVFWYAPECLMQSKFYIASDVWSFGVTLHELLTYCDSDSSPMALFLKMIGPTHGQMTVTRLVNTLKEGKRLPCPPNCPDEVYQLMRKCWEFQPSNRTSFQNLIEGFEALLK

On to `O=C1NCCCCOCc2cc(ccc2N2CCOCC2)Nc2ncc(Cl)c(n2)-c2ccc1cc2` [Example 9, 2^5-chloro-4^4-morpholin-6-oxa-3,11-diaza-2(4,2)-pyrimidina-1(1,4),4(1,3)-dibenzenacyclododecaphan-12-one], for which the IC50 on TYK2 is 11 to 100 nM; at JAK1, 11 to 100 nM; at JAK3 it was under 10 nM; against JAK2, under 10 nM.
As to `O=C1NCCCCOCc2cc(ccc2N2CCOCC2)Nc2nccc(n2)-c2ccc1c(F)c2` [Example 10, 1^3-fluoro-4^4-morpholin-6-oxa-3,11-diaza-2(4,2)-pyrimidina-1(1,4),4(1,3)-dibenzenacyclododecaphan-12-one], the IC50 was 11 to 100 nM on TYK2, 11 to 100 nM at JAK1, under 10 nM at JAK3 and under 10 nM at JAK2.
In the case of `N#Cc1cnc2nc1-c1ccc(cc1)C(=O)NCCCCOCc1cc(ccc1N1CCOCC1)N2` [Example 11, 2^5-cyano-4^4-morpholin-6-oxa-3,11-diaza-2(4,2)-pyrimidina-1(1,4),4(1,3)-dibenzenacyclododecaphan-12-one], the IC50 on TYK2 was 1000 to 10000 nM; on JAK1 it was 1000 to 10000 nM; on JAK3 it was 101 to 1000 nM; at JAK2, 101 to 1000 nM.
As to `O=C1NCCCCOCc2cccc(c2)Nc2nccc(n2)-c2ccc1cc2F` [Example 12, 1^2-fluoro-6-oxa-3,11-diaza-2(4,2)-py-rimidina-1(1,4),4(1,3)-dibenzenacy-clododecaphan-12-one], the IC50 on TYK2 lay in the range of 1000 to 10000 nM; on JAK1, 101 to 1000 nM; at JAK3, 11 to 100 nM; at JAK2 it was 101 to 1000 nM.
Turning to `O=C1NCCCOCc2cc(ccc2N2CCOCC2)Nc2nccc(n2)-c2ccc1cc2` [Example 13, 4^4-morpholin-6-oxa-3,11-diaza-2(4,2)-pyrimidina-1(1,4),4(1,3)-dibenzena-cycloundecaphan-11-one], the IC50 at TYK2, at JAK1, on JAK3 and at JAK2 was over 10000 nM throughout.
`O=C1NCCCCOCc2cc(ccc2N2CCOCC2)Nc2ncc(Cl)c(n2)-c2ccc1cc2F` [Example 14, 2^5-chloro-1^2-fluoro-4^4-morpholin-6-oxa-3,11-diaza-2(4,2)-pyrimidina-1-(1,4),4(1,3)-dibenzenacyclododeca-phan-12-one]: the IC50 lay within 101 to 1000 nM on TYK2, 101 to 1000 nM at JAK1, 11 to 100 nM at JAK3 and 11 to 100 nM on JAK2.
`COc1ccc2cc1COCCCCNC(=O)c1ccc(c(F)c1)-c1ccnc(n1)N2` [Example 15, 1^2-fluoro-4^4-methoxy-6-oxa-3,11-di-aza-2(4,2)-pyrimidina-1(1,4),4(1,3)-dibenzenacyclododecaphan-12-one]: the IC50 was in the range of 1000 to 10000 nM on TYK2, 101 to 1000 nM on JAK1, 11 to 100 nM on JAK3 and 101 to 1000 nM at JAK2.
For the compound `O=C1NCCCCOCc2cc(cc(N3CCOCC3)c2)Nc2ncc(Cl)c(n2)-c2ccc1cc2` [Example 16, 2^5-chloro-4^5-morpholin-6-oxa-3,11-diaza-2(4,2)-pyrimidina-1(1,4),4(1,3)-dibenzenacyclododecaphan-12-one], the IC50 was in the range of 1000 to 10000 nM on TYK2, 11 to 100 nM on JAK1, 11 to 100 nM at JAK3 and 11 to 100 nM against JAK2.
For `O=C1NCCCCOCc2cc(ccc2N2CCOCC2)Nc2ncc(Cl)c(n2)-c2ccc1cc2Cl` [Example 17, 1^2,2^5-dichloro-4^4-morpholin-6-oxa-3,11-diaza-2(4,2)-pyrimidina-1(1,4),4(1,3)-dibenzenacyclododecaphan-12-one], the IC50 was in the range of 1000 to 10000 nM on TYK2, 1000 to 10000 nM at JAK1, 101 to 1000 nM on JAK3 and 101 to 1000 nM against JAK2.
Consider `O=C1NCCCCOCc2cccc(c2)Nc2ncc(Cl)c(n2)-c2ccc1cc2Cl` [Example 18, 1^2,2^5-dichloro-6-oxa-3,11-diaza-2(4,2)-pyrimidina-1(1,4),4(1,3)-dibenz-enacyclododecaphan-12-one], for which the IC50 at TYK2 is over 10000 nM; at JAK1, 1000 to 10000 nM; at JAK3, 101 to 1000 nM; at JAK2 it was 101 to 1000 nM.
For the compound `O=C1NCCCCOCc2cc(ccc2N2CCOCC2)Nc2nccc(n2)-c2ccc1cc2C(F)(F)F` [Example 19, 4^4-morpholin-1^2-trifluoromethyl-6-oxa-3,11-diaza-2(4,2)-pyrimi-dina-1(1,4),4(1,3)-dibenzenacyclododecaphan-12-one], the IC50 at TYK2 was over 10000 nM; on JAK1, 1000 to 10000 nM; at JAK3 it was 1000 to 10000 nM; at JAK2, 1000 to 10000 nM.
With `O=C1NCCCCOCc2cc(ccc2Cl)Nc2nccc(n2)-c2ccc1cc2F` [Example 20, 4^4-chloro-1^2-fluoro-6-oxa-3,11-diaza-2(4,2)-pyrimidina-1(1,4),4(1,3)-di-benzenacyclododecaphan-12-one], the IC50 at TYK2 lay within 1000 to 10000 nM; at JAK1, 101 to 1000 nM; on JAK3, 11 to 100 nM; at JAK2, 101 to 1000 nM.
As for `COc1cc2ccc1-c1ccnc(n1)Nc1ccc(N3CCOCC3)c(c1)COCCCCNC2=O` [Example 21, 1^2-methoxy-4^4-morpholin-6-oxa-3,11-diaza-2(4,2)-pyrimidina-1(1,4),4(1,3)-dibenzenacyclododecaphan-12-one], the IC50 on TYK2 was in the range of 1000 to 10000 nM; on JAK1, 1000 to 10000 nM; on JAK3, 101 to 1000 nM; against JAK2 it was 101 to 1000 nM.
With `O=C1NCCCCOCc2cc(ccc2N2CCOCC2)Nc2nccc(n2)-c2ccc1cc2OC(F)(F)F` [Example 22, 4^4-morpholin-1^2-trifluoromethoxy-6-oxa-3,11-diaza-2(4,2)-pyrimidina-1(1,4),4(1,3)-dibenzenacyclododeca-phan-12-one], the IC50 at TYK2 is 1000 to 10000 nM; at JAK1 it was 1000 to 10000 nM; at JAK3, 101 to 1000 nM; at JAK2, 101 to 1000 nM.
In the case of `Cc1cc2ccc1-c1ccnc(n1)Nc1ccc(N3CCOCC3)c(c1)COCCCCNC2=O` [Example 23, 1^2-methyl-4^4-morpholin-6-oxa-3,11-diaza-2(4,2)-pyrimidina-1(1,4),4(1,3)-dibenzenacyclododecaphan-12-one], the IC50 at TYK2 lay in the range of 1000 to 10000 nM; on JAK1, 1000 to 10000 nM; at JAK3, 11 to 100 nM; against JAK2, 101 to 1000 nM.
